This note sets out measurements from ChEMBL document CHEMBL1201862, “PubChem BioAssay data set” (2004).

Data set [1] deals with Cytochrome P450 2C19 (Homo sapiens, UniProt P33261). Briefly: Cytochrome panel assay with activity outcomes. Panel member name: p450-cyp2c19 Compounds with AC50 equal or less than 10 uM are considered active. The class given is functional.
Data set [2] has as its target T1, Cytochrome P450 1A2 (Homo sapiens, UniProt P05177).
T1 sequence (P05177 whole entry): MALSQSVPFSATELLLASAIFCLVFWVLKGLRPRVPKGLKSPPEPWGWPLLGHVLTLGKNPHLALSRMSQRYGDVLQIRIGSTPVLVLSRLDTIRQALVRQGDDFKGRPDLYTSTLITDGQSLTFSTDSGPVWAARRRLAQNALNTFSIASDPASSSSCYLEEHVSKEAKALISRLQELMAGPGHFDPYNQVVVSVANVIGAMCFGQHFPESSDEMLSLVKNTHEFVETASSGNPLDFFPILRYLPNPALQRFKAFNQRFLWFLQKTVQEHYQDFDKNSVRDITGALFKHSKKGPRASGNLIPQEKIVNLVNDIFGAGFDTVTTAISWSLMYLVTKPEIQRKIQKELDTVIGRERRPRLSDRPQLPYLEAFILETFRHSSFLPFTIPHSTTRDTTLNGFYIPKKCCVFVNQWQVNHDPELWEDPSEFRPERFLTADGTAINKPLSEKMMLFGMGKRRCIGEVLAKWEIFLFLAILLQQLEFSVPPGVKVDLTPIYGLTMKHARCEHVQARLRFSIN

Data set [3] is described as follows: inhibitors of intracellular T. cruzi replication, confirmation, NIH3T3 host cells, beta-gal luminescence (AID 2044).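 Further: intracellular parasites grown in NIH/3T3 mouse fibroblasts as host cells; luminescent beta-galactosidase reporter signal from transgenic T. cruzi replicating inside host cells; inhibitors lower the luminescence signal.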 The class given is functional, cell-based.
Data set [4] can be described thus: cytotoxicity toward NIH3T3 fibroblasts, dose response, counter-screen, cell-based, ATP luminescence, mouse fibroblasts (AID 2010).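 Further: cells exposed to compound for about 90 hours before reading.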 The data set is classed as functional. Background: The purpose of a counterscreen is to sort out artefacts and off-target activity.
For data set [5], the system named is Streptococcus sp. 'group A'. Briefly: growth inhibition of control SK(-) GAS strain, dose response, counter-screen for streptokinase expression inhibitor project, luminescence, kanamycin, BacTiterGlo, confirmation (AID 1900). The class given is functional, organism-based.
For data set [6], the target named is T2, Streptokinase A (Streptococcus pyogenes serotype M1, UniProt P10520).
T2 sequence (P10520 whole entry): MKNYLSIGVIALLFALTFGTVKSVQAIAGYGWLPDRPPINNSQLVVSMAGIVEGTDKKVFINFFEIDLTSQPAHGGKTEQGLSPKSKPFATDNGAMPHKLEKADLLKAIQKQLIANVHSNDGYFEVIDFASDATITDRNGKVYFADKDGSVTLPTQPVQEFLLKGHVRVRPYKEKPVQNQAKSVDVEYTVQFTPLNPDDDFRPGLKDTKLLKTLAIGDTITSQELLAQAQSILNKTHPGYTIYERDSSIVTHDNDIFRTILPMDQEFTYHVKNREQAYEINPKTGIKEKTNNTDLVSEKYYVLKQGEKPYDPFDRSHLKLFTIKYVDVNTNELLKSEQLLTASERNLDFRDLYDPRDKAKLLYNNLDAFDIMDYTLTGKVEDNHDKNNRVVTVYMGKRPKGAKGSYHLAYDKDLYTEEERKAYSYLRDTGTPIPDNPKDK
Briefly: S. pyogenes streptokinase expression inhibitors, potency, dose response, plasminogen activation absorbance, OD405 (AID 1914).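 Further: secreted streptokinase activity via plasminogen activation per viability signal from cell pellet.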 The class given is functional, Streptococcus pyogenes M1 GAS.

Data set [7] concerns Streptococcus. Briefly: Group A Streptococcus viability loss, dose response, counter-screen for streptokinase expression inhibitor project, luminescence, BacTiterGlo (AID 1915).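 Further: potency for reduction of bacterial viability or growth.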 The class given is functional, organism-based.
Data set [8] can be described thus: Luminescence Cell-Based Dose Response HTS to Identify Activators of Luciferase Translation or Activity in H4 […] Cells. [Related pubchem assays: 1829 (Project Summary), 1814 (Primary HTS)]. The data set is classed as functional.
The subject of data set [9] is H4. In words: Luminescence Cell-Based Dose Response HTS to Identify Activators of 5'UTR Stem-Loop Driven Prion Protein mRNA Translation in H4 Neuroglioblastoma Cells. [Related pubchem assays: 1829 (Project Summary), 1814 (Primary HTS)]. The data set is classed as functional. The settings on record: Homo sapiens.

Activity calls are given as the source filed them.

Cytochrome P450 2C19, sequence (P33261 whole entry): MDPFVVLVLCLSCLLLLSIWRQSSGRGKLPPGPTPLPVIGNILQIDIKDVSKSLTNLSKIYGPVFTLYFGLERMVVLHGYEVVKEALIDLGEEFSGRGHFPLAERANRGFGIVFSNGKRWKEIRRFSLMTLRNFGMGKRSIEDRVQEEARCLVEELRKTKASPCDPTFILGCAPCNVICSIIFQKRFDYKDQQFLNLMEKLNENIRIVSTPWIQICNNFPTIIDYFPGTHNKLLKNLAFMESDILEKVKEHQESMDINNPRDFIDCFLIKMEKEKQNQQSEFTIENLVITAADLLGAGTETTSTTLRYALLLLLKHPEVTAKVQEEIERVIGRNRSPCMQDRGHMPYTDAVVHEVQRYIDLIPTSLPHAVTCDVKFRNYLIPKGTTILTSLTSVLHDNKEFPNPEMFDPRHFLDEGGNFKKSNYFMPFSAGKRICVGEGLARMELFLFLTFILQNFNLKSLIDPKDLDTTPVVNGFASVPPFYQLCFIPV

The term AC50 denotes the concentration giving half of the maximal activity seen. As for `COc1ccc(NC(=O)C2CC(=O)NC3=C2C(=O)CC(C)(C)C3)cc1` (configuration not stated), in data set [1] (read-out: AC50), the AC50 is 39.8 µM (inconclusive).
Regarding `CCOC(=O)c1ccc(OC(=O)CCCCCNC(=N)N)cc1`, the AC50 in data set [2] is 12.6 µM (inconclusive).
The EC50 is the concentration at which the effect is half-maximal. As to `Cc1c(Cl)cccc1NC(=O)COC(=O)c1c2c(nc3ccccc13)CCN(Cc1ccccc1)C2`, the EC50 was 1.63 µM (active) in data set [3] and > 60 µM (not active) in [4].
As to `CCN1CCC2(CC1)NC(CO)(CO)CO2`, the AC50 result in data set [1] is on record as “inconclusive”.
Consider `Cc1c(C(=O)Nc2cccc([N+](=O)[O-])c2)csc1-c1ccccc1`, for which the 50% effective concentration (EC50) in data set [3] is 1.43 µM (active); in [4], > 60 µM (not active).
For `COc1cc(/C=C/C(=O)OC2CC3CCC2(C)C3(C)C)ccc1O` (configuration not stated), the half-maximal effective concentration (EC50) in [5] is 6.88 µM (active); in data set [6], 7.32 µM (active); in data set [7] it was 6.7 µM (active).
For the molecule `NCCc1ccc(S(=O)(=O)F)cc1`, in [2], the half-maximal activity concentration (AC50) is 15.8 µM (inconclusive).
For `Cc1ccc(S(=O)(=O)N(C(=N)N)c2nc(N(C)C)nc(N(C)C)n2)cc1`, the concentration giving a half-maximal response (EC50) was 0.879 µM (active) in [3] and > 60 µM (not active) in [4].
Turning to `Cc1cc(C)c(S(C)(=O)=O)c(Oc2ccc(F)cc2)n1`, the AC50 in data set [1] (read-out: AC50) is 20 µM (inconclusive).
Consider `CCSc1n[nH]c2c3cccc(C)c3nc-2n1`, for which the 50% effective concentration (EC50) was 2.08 µM (active) in data set [8] and > 120 µM (not active) in data set [9].
As to `CN1C2C=C3C(C#N)=C(N)C(C#N)(C#N)[C@H](c4c(F)cccc4F)[C@H]3C1CC2` (some centres not stated), the AC50 in data set [1] (read-out: AC50) is 22.4 µM (inconclusive).
Turning to `O=C(CCC(=O)Nc1cc(C(F)(F)F)ccc1Cl)N/N=C\c1cc([N+](=O)[O-])ccc1O`, the EC50 is 0.675 µM (active) in [5] and 1.44 µM (active) in data set [7].
On to `COc1ccccc1OCCCn1c(C)c(C#N)c2ccccc21`, for which the values for the 50% effective concentration (EC50) in data set [5], in data set [6] and in [7] were 21.2 µM (active), 23.2 µM (active) and > 150 µM (not active), respectively.
The like results for `Cc1ccc(C)c(C(=O)COC(=O)c2cc(Cl)nc3ccccc23)c1` were, in that order, 60.6 µM (active), 19.4 µM (active) and > 150 µM (not active).
As for `COC(=O)[C@@]1(Cc2ccc(F)cc2)[C@@H]2[C@@H](CC(=O)[C@H]2CC(=O)C(=O)N(C)C)CN1C(=O)c1ccccc1`, the AC50 in [1] (read-out: AC50) is 39.8 µM (inconclusive).
Consider `COc1ccc(-c2nnc(NC(=O)C3CCCN3S(=O)(=O)c3cccs3)o2)cc1` (configuration not stated), for which the 50% effective concentration (EC50) in [5], in [6] and in data set [7] was > 150 µM (not active) each time.
Regarding `CC(C)(C)CNC(CO)C12CC3CC(CC(C3)C1)C2` (configuration not stated), in [1] (read-out: AC50), the AC50 was 15.8 µM (inconclusive).
For `N=C(Cc1ccc(Cl)cc1)NOC(=O)c1cccc2ccccc12`, the results for the EC50 in [3] and in data set [4] were 0.81 µM (active) and > 60 µM (not active), respectively.
For `CC1c2ccccc2SC(CCCN(C)C)c2ccccc21` (configuration not stated) the same measures were 0.639 µM (active) and > 60 µM (not active).
On to `Cc1cccc(N2CCN(C(=O)C34CC5CC(CC(C5)C3)C4)CC2)c1C`, for which the EC50 in data set [5] is 3.81 µM (active); in data set [6], 15.2 µM (active); in data set [7] it was 11.3 µM (active).
For the molecule `Cn1c(O)c(C(c2ccccn2)c2c(O)n(C)c(=S)[nH]c2=O)c(=O)[nH]c1=S`, the AC50 in data set [1] (read-out: AC50) is 0.316 µM (inconclusive).
As for `O=C(Nc1cccc(Cl)c1N1CCCC1)c1ccc(Br)o1`, the EC50 in [5] was 4.12 µM (active); in data set [6], > 150 µM (not active); in data set [7] it was 6.85 µM (active).
For `Cc1ccc(-c2[nH]nc(N)c2N=Nc2ccccc2C)cc1` the same measures were 2.63 µM (active), > 150 µM (not active) and 8.03 µM (active).
For `Cc1cc(=O)c(C(=O)O)cn1Nc1ccc(Cl)cc1` the same measures were 3.15 µM (active), > 150 µM (not active) and 14.5 µM (active).
Turning to `CC1(C)Cc2c(sc3nc(-c4cc5ccccc5o4)n(N)c(=O)c23)CO1`, the results for the EC50 in data set [8] and in data set [9] were 0.817 µM (active) and > 120 µM (inconclusive), respectively.
As for `CSc1nc(O)c2c(n1)N=C(C)/C(=C(/O)OC(C)C)C2c1ccncc1` (configuration not stated), the AC50 in [2] was 20 µM (inconclusive).
In the case of `COC(=O)C1=CN(c2ccc(OC)cc2)C=C(C(=O)OC)C1c1ccc([N+](=O)[O-])cc1`, the half-maximal effective concentration (EC50) in data set [3] is 1.94 µM (active); in data set [4], > 30 µM (not active).
On to `COc1ccc(-c2cnnn2-c2ccc(NC(=O)c3ccco3)cc2)cc1OC`, for which, in [2], the AC50 is 14.1 µM (inconclusive).
For the molecule `CCCCCCOC(=O)C(C#N)c1nc2ccccc2nc1N1CCN(C)CC1` (configuration not stated), the 50% effective concentration (EC50) in data set [3] is 2.57 µM (active); in data set [4], 11.3 µM (active).
As for `Cc1cc2c(O)nc(N)nc2nc1C`, in [2], the AC50 is 6.31 µM (inconclusive).
On to `CCn1ccc(C(=O)NC2C(=O)N3C(C(=O)O)=C(C)CSC23)n1` (configuration not stated), for which the half-maximal activity concentration (AC50) in data set [1] (read-out: AC50) is 14.1 µM (inconclusive).
Regarding `CC1CCCN(C(=O)C(=O)c2cn(CC(=O)N3CCCCCC3)c3ccccc23)C1` (configuration not stated), the EC50 is 0.765 µM (active) in [3] and > 60 µM (not active) in data set [4].
Take `CC(C)CN=C(S)N1CCN(C)CC1`: the AC50 in data set [1] (read-out: AC50) was 39.8 µM (inconclusive).
In the case of `CCN=C(S)NNC(=O)c1cc(C)on1`, the AC50 in data set [1] (read-out: AC50) is 7.94 µM (inconclusive).
Turning to `O=C(NCCCN1CCCC1)C1CCN(C(=O)c2cc3sccc3n2Cc2ccc(F)cc2)CC1`, the results for the half-maximal effective concentration (EC50) in data set [3] and in [4] were 1.32 µM (active) and > 60 µM (not active), respectively.
Regarding `CCOc1ccc(CN2CCN(Cc3cccc4nonc34)CC2CCO)cc1` (configuration not stated), the concentration giving a half-maximal response (EC50) in data set [3] was 0.559 µM (active); in data set [4], > 60 µM (not active).
For `O=C(NCc1ccccc1)C(=O)NCC1OCCN1S(=O)(=O)c1ccc([N+](=O)[O-])cc1` (configuration not stated) the same measures were 0.782 µM (active) and > 60 µM (not active).
For `Cc1ccc(Nc2ccc([N+](=O)[O-])nc2[N+](=O)[O-])cc1` the same measures were 1.57 µM (active) and > 60 µM (not active).
As for `c1ccc(Nc2ccc3c4c(cccc24)CC3)cc1`, the figures for the EC50 in data set [3] and in data set [4] were 0.97 µM (active) and 59.5 µM (active), respectively.
Turning to `COc1ccc(CCNC(=O)CCCCCN2C(=O)c3ccccc3C2=O)cc1`, in data set [2], the AC50 is 25.1 µM (inconclusive).
On to `Oc1ccc(-c2nc3c4c(ncn3n2)-c2ccccc2CC42CCCC2)cc1`, for which the values for the concentration giving a half-maximal response (EC50) in data set [5] and in [7] were 0.909 µM (active) and 0.936 µM (active), respectively.
With `COc1ccc(-c2cc3n(n2)CCc2nc4ccccc4n2-3)cc1`, the concentration giving a half-maximal response (EC50) is 10.5 µM (active) in [8] and 12.5 µM (active) in data set [9].
On to `O=c1c2cc(N3CCOCC3)ccc2[nH]c(=S)n1CCc1ccccc1`, for which the concentration giving a half-maximal response (EC50) in data set [5] is 0.447 µM (active); in data set [6] it was > 150 µM (not active); in data set [7] it was 12.3 µM (active).
Regarding `C[C@H]1[C@H](C)CC[C@]2(C)CC[C@]3(C)C(=CC[C@@H]4[C@@]5(C)CC[C@@H](O)[C@](C)(C(=O)O)[C@@H]5CC[C@]43C)[C@H]12` [BOSWELLIC ACID], the concentration giving a half-maximal response (EC50) in data set [5] is 0.705 µM (active); in [7] it was 0.963 µM (active).
Consider `COC(=O)[C@@H]1CC[C@H](C)[C@@H](c2ccc(C)cc2)N1C(=O)c1ccc(/C=N\OC[C@@H](C)[C@H](OCc2ccccc2)C(C)C)cc1`, for which, in data set [1] (read-out: AC50), the AC50 was 6.31 µM (inconclusive).
In the case of `Cc1cc(NC(=O)/C=C/c2ccccc2Cl)no1`, the EC50 in [8] was 118 µM (active); in data set [9], 9.55 µM (active).
Consider `CCCCCCn1c(=O)c(C(=O)Nc2c(C)n(C)n(-c3ccccc3)c2=O)c(O)c2ccccc21`, for which the EC50 is 3.09 µM (active) in [5], 3.63 µM (active) in [6] and 8.06 µM (active) in [7].
